Results: PubChem BioAssay AID1963958 (Molecular Pharmacology Branch, DTP, NCI, 2024)

Tested on: MDA-MB-231 multicell spheroids, viability
Assay: Anticancer human tumor MDA-MB-231 cell line growth inhibition [PI3K];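 note: spheroids exposed to agents for seven days before reading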;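 for viability, T/C: percent of vehicle control luminescence with DMSO treated spheroids as 100%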
Conditions: for IC50: curve of first compound; for viability, T/C: stronger effect = lower value
Summary of the method: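 Tumor cells grown as multi-cell spheroids with HUVEC endothelial cells and MSC fibroblast-like stroma were treated with targeted agents combined with inavolisib, alpelisib, duvelisib or copanlisib. Doses fell in half-log steps from near clinical Cmax, else from 10 microM. Viability was measured.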

[1] = second compound 0.0316 µM, first compound 0.000316 µM
[2] = second compound 0.0316 µM, first compound 0.001 µM
[3] = second compound 0.0316 µM, first compound 0.00316 µM
[4] = second compound 0.0316 µM, first compound 0.01 µM
[5] = second compound 0.0316 µM, first compound 0.0316 µM
[6] = second compound 0.0316 µM, first compound 0.1 µM
[7] = second compound 0.1 µM, first compound 0.000316 µM
[8] = second compound 0.1 µM, first compound 0.001 µM
[9] = second compound 0.1 µM, first compound 0.00316 µM
[10] = second compound 0.1 µM, first compound 0.01 µM
[11] = second compound 0.1 µM, first compound 0.0316 µM
[12] = second compound 0.1 µM, first compound 0.1 µM
[13] = second compound 0.316 µM, first compound 0.000316 µM
[14] = second compound 0.316 µM, first compound 0.001 µM
[15] = second compound 0.316 µM, first compound 0.00316 µM
[16] = second compound 0.316 µM, first compound 0.01 µM
[17] = second compound 0.316 µM, first compound 0.0316 µM
[18] = second compound 0.316 µM, first compound 0.1 µM
[19] = second compound 1 µM, first compound 0.000316 µM
[20] = second compound 1 µM, first compound 0.001 µM
[21] = second compound 1 µM, first compound 0.00316 µM
[22] = second compound 1 µM, first compound 0.01 µM
[23] = second compound 1 µM, first compound 0.0316 µM
[24] = second compound 1 µM, first compound 0.1 µM
[25] = second compound 3.16 µM, first compound 0.000316 µM
[26] = second compound 3.16 µM, first compound 0.001 µM
[27] = second compound 3.16 µM, first compound 0.00316 µM
[28] = second compound 3.16 µM, first compound 0.01 µM
[29] = second compound 3.16 µM, first compound 0.0316 µM
[30] = second compound 3.16 µM, first compound 0.1 µM
[31] = second compound 10 µM, first compound 0.000316 µM
[32] = second compound 10 µM, first compound 0.001 µM
[33] = second compound 10 µM, first compound 0.00316 µM
[34] = second compound 10 µM, first compound 0.01 µM
[35] = second compound 10 µM, first compound 0.0316 µM
[36] = second compound 10 µM, first compound 0.1 µM

CC(=O)c1c(C)c2cnc(Nc3ccc(N4CCNCC4)cn3)nc2n(C2CCCC2)c1=O + Cc1nc(NC(=O)N2CCCC2C(N)=O)sc1-c1ccnc(C(C)(C)C(F)(F)F)c1 gave an IC50 (second compound 0.0316 µM) of 0.0697 µM, an IC50 (second compound 0.1 µM) of 0.052 µM and an IC50 (second compound 0.316 µM) of 0.0273 µM. For the same molecule, the IC50 (second compound 1 µM) was 0.022 µM, the IC50 (second compound 3.16 µM) was 0.019 µM and the IC50 (second compound 10 µM) was 0.015 µM. For the same molecule, the viability, T/C [1] was 98.2%, the viability, T/C [2] was 87.3% and the viability, T/C [3] was 92.4%. It also gave a viability, T/C [4] of 82.7%, a viability, T/C [5] of 66.3% and a viability, T/C [6] of 42.5%. For the same molecule, the viability, T/C [7] was 79.2%, the viability, T/C [8] was 85.5% and the viability, T/C [9] was 81.4%. For the same molecule, the viability, T/C [10] was 73.4%, the viability, T/C [11] was 59.7% and the viability, T/C [12] was 37.8%. It also gave a viability, T/C [13] of 73.8%, a viability, T/C [14] of 72.8% and a viability, T/C [15] of 71.8%. The viability, T/C [16] was 60.9%, the viability, T/C [17] was 48.8% and the viability, T/C [18] was 34%. For the same molecule, the viability, T/C [19] was 70.5%, the viability, T/C [20] was 64.9% and the viability, T/C [21] was 63%. The viability, T/C [22] was 59%, the viability, T/C [23] was 46% and the viability, T/C [24] was 29.6%. For the same molecule, the viability, T/C [25] was 67.2%, the viability, T/C [26] was 66.6% and the viability, T/C [27] was 61.1%. For the same molecule, the viability, T/C [28] was 56.3%, the viability, T/C [29] was 44.8% and the viability, T/C [30] was 33.2%. It also gave a viability, T/C [31] of 64%, a viability, T/C [32] of 60.9% and a viability, T/C [33] of 58.4%. The viability, T/C [34] was 52.4%, the viability, T/C [35] was 45.1% and the viability, T/C [36] was 31%.

CC(C)n1nc(-c2ccc3oc(N)nc3c2)c2c(N)ncnc21 + Cc1nc(NC(=O)N2CCCC2C(N)=O)sc1-c1ccnc(C(C)(C)C(F)(F)F)c1 gave an IC50 (second compound 0.0316 µM) of 0.0422 µM, an IC50 (second compound 0.1 µM) of 0.0253 µM and an IC50 (second compound 0.316 µM) of 0.0109 µM. For the same molecule, the IC50 (second compound 1 µM) was 0.00629 µM, the IC50 (second compound 3.16 µM) was 0.00481 µM and the IC50 (second compound 10 µM) was 0.00317 µM. For the same molecule, the viability, T/C [1] was 94%, the viability, T/C [2] was 85.8% and the viability, T/C [3] was 80.9%. The viability, T/C [4] was 69.3%, the viability, T/C [5] was 55.3% and the viability, T/C [6] was 35.2%. It also gave a viability, T/C [7] of 85.7%, a viability, T/C [8] of 85.7% and a viability, T/C [9] of 71.2%. For the same molecule, the viability, T/C [10] was 65.2%, the viability, T/C [11] was 45.9% and the viability, T/C [12] was 31.3%. For the same molecule, the viability, T/C [13] was 73%, the viability, T/C [14] was 72% and the viability, T/C [15] was 60.2%. For the same molecule, the viability, T/C [16] was 50.6%, the viability, T/C [17] was 39.6% and the viability, T/C [18] was 27.7%. The viability, T/C [19] was 68.3%, the viability, T/C [20] was 58% and the viability, T/C [21] was 55.5%. For the same molecule, the viability, T/C [22] was 49.1%, the viability, T/C [23] was 35% and the viability, T/C [24] was 23.6%. It also gave a viability, T/C [25] of 66.4%, a viability, T/C [26] of 63.2% and a viability, T/C [27] of 54.1%. It also gave a viability, T/C [28] of 41.4%, a viability, T/C [29] of 34.8% and a viability, T/C [30] of 25.3%. For the same molecule, the viability, T/C [31] was 62.3%, the viability, T/C [32] was 56% and the viability, T/C [33] was 50.4%. For the same molecule, the viability, T/C [34] was 43.9%, the viability, T/C [35] was 33.8% and the viability, T/C [36] was 28.5%.

In the case of CCCS(=O)(=O)Nc1ccc(F)c(C(=O)c2c[nH]c3ncc(-c4ccc(Cl)cc4)cc23)c1F + Cc1nc(NC(=O)N2CCCC2C(N)=O)sc1-c1ccnc(C(C)(C)C(F)(F)F)c1, the IC50 (second compound 0.0316 µM) is reported as 4.68 µM, the IC50 (second compound 0.1 µM) is reported as 3.51 µM and the IC50 (second compound 0.316 µM) is reported as 2.52 µM. For the same molecule, the IC50 (second compound 1 µM) was 1.54 µM, the IC50 (second compound 3.16 µM) was 1.17 µM and the IC50 (second compound 10 µM) was 0.359 µM. The viability, T/C [5] was 102%, the viability, T/C [6] was 102% and the viability, T/C (second compound 0.0316 µM, first compound 0.316 µM) was 85.5%. The viability, T/C (second compound 0.0316 µM, first compound 1 µM) was 80%, the viability, T/C (second compound 0.0316 µM, first compound 3.16 µM) was 59.4% and the viability, T/C (second compound 0.0316 µM, first compound 10 µM) was 31.7%. The viability, T/C [11] was 90.6%, the viability, T/C [12] was 96.6% and the viability, T/C (second compound 0.1 µM, first compound 0.316 µM) was 83.6%. It also gave a viability, T/C (second compound 0.1 µM, first compound 1 µM) of 74.1%, a viability, T/C (second compound 0.1 µM, first compound 3.16 µM) of 51.6% and a viability, T/C (second compound 0.1 µM, first compound 10 µM) of 32.6%. The viability, T/C [17] was 80.4%, the viability, T/C [18] was 80.8% and the viability, T/C (second compound 0.316 µM, first compound 0.316 µM) was 72.7%. For the same molecule, the viability, T/C (second compound 0.316 µM, first compound 1 µM) was 67.2%, the viability, T/C (second compound 0.316 µM, first compound 3.16 µM) was 45.3% and the viability, T/C (second compound 0.316 µM, first compound 10 µM) was 31.4%. The viability, T/C [23] was 72.3%, the viability, T/C [24] was 66.6% and the viability, T/C (second compound 1 µM, first compound 0.316 µM) was 64.8%. For the same molecule, the viability, T/C (second compound 1 µM, first compound 1 µM) was 57.5%, the viability, T/C (second compound 1 µM, first compound 3.16 µM) was 38.9% and the viability, T/C (second compound 1 µM, first compound 10 µM) was 29%. It also gave a viability, T/C [29] of 68.8%, a viability, T/C [30] of 64.8% and a viability, T/C (second compound 3.16 µM, first compound 0.316 µM) of 62.3%. For the same molecule, the viability, T/C (second compound 3.16 µM, first compound 1 µM) was 51.2%, the viability, T/C (second compound 3.16 µM, first compound 3.16 µM) was 38.8% and the viability, T/C (second compound 3.16 µM, first compound 10 µM) was 25.9%. It also gave a viability, T/C [35] of 61.1%, a viability, T/C [36] of 56% and a viability, T/C (second compound 10 µM, first compound 0.316 µM) of 50.3%. It also gave a viability, T/C (second compound 10 µM, first compound 1 µM) of 43%, a viability, T/C (second compound 10 µM, first compound 3.16 µM) of 36.8% and a viability, T/C (second compound 10 µM, first compound 10 µM) of 22.3%.
